Earlier results, collected in patent US6703389B2, “Method of treating chronic pain” (Pharmacia & Upjohn Company, priority 1999, dated 2004).

Tests used:
[1] = literature (Leonard 1997)
[2] = mice, literature (Brunello and Racagni 1998)
[3] = tested on: norepinephrine reuptake compared to serotonin reuptake; details: rat brain synaptosomes, literature

CCOc1ccccc1OC(c1ccccc1)C1CNCCO1 (racemic) [Reboxetine, 2-[(2-ethoxyphenoxy)(phenyl)methyl]morpholine]
effect in the 8-OH-DPAT hypothermia test [1]: ineffective | effect on resperine-induced blepharospasm and hypothermia [2]: prevent

CNCC(O)CC12CCC(c3ccccc31)c1ccccc12 (stereo not drawn) [oxaprotiline]
pharmacological selectivity for inhibiting norepinephrine reuptake compared to serotonin reuptake, ratio of Ki values [3]: about 4166
